Among the data in PubChem BioAssay (NCI) are TGI values, retold here.

Molecules are shown by their SMILES.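 Step 1: Grow cells in 96-well plates. Step 2: Expose to compound for 48 hours at 5 concentrations. Step 3: Interpolate endpoints linearly; if unreached, use highest concentration. TGI marks complete inhibition of growth.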 Bounds are passed on as bounds.

What all share (assay): NCI anticancer screen, dose series, 48 h
For assay [1], the system named is KM12 colon.
For assay [2], the system named is HCT-116 colon.
The test system of assay [3] is OVCAR-4 ovarian.
Assay [4] has as its system EKVX NSCLC.
Assay [5] has as its system RXF 393 renal.
Assay [6] relates to MALME-3M melanoma.
In assay [7] the test system is U251 CNS.
For assay [8], the system named is BT-549 breast.
Assay [9] has as its system OVCAR-8 ovarian.
Assay [10] has as its system NCI/ADR-RES ovarian.
In assay [11] the test system is HOP-62 NSCLC.
Assay [12] concerns A498 renal.
Assay [13] relates to CCRF-CEM leukemia.
For assay [14], the system named is SN12C renal.
The subject of assay [15] is TK-10 renal.
For assay [16], the system named is HL-60(TB) leukemia.
Assay [17] has as its system SF-539 CNS.

Regarding `CC(C)N=C(NC#N)NS(=O)(=O)c1cnccc1Nc1ccc(Cl)cc1`, the TGI in assay [1], in [2], in assay [3], in assay [4], in assay [5] and in assay [6] was > 100 µM in each case. Moreover, the TGI in assay [7], in assay [8], in [9], in assay [10], in assay [11] and in assay [12] was > 100 µM in each case. Moreover, the TGI in assay [13], in [14] and in assay [15] was > 100 µM in each case.
Turning to `O=C1c2ccccc2C(=O)N1CCCCCCNOCCCN1C(=O)c2ccccc2C1=O`, the TGI in assay [1] is 78.8 µM; in [2], > 100 µM; in [3] it was 93.3 µM; in assay [4], > 100 µM; in [5] it was > 100 µM; in [6] it was > 100 µM. In addition, the TGI in assay [7] is > 100 µM; in assay [8], 85.4 µM; in assay [9] it was > 100 µM; in [10], 70 µM; in [11] it was > 100 µM; in assay [12] it was 93.8 µM. Besides, the TGI in assay [13], in [14] and in [15] was > 100 µM each time.
As for `O=C(OCC12CC3CC(CC(C3)C1)C2)c1ccc(NCc2cc(O)ccc2O)cc1`, the TGI stood at 4.52 µM in [1]; 10.3 µM in assay [2]; 15 µM in assay [16]; 6.28 µM in assay [3]; 9.26 µM in assay [4]; 3.03 µM in [5]. Further, the TGI was determined as 5.33 µM in assay [7]; 1.25 µM in assay [8]; 1.93 µM in assay [17]; 7.28 µM in [9]; 8.97 µM in assay [10]; 16 µM in [11]. The TGI in assay [12] was 11.8 µM; in assay [14] it was 18.7 µM; in [15], 4.83 µM.
With `O=C(N/N=C1/C(=O)c2c3ccccc3cc3cccc1c23)c1cccc(Cl)c1`, the TGI in [1], in assay [2], in assay [16], in assay [3], in assay [5] and in assay [7] was > 100 µM throughout. Further, the TGI in assay [8], in assay [17], in assay [9], in [10], in assay [11] and in [12] was > 100 µM throughout. Also, the TGI in assay [13] and in assay [14] was > 100 µM in each case.
For `CCCCCC(=O)OCC1(CO)C/C(=C\CC(C(C)C)C(C)C)C(=O)O1` (centres undefined), the TGI in assay [1], in assay [2], in assay [3], in assay [4], in assay [5] and in assay [6] was > 100 µM throughout. In addition, the TGI in [7] is 85.3 µM; in [8], > 100 µM; in assay [9], 76.2 µM; in assay [10] it was > 100 µM; in assay [11], > 100 µM; in assay [12], > 100 µM. Besides, the TGI in assay [13], in assay [14] and in assay [15] was > 100 µM throughout.
Consider `COc1ccc(C(C2C(=O)N(C)C(=O)N(C)C2=O)C(F)(F)C(=O)N(C)C)cc1` (centres undefined), for which the TGI in assay [1], in assay [2], in assay [3], in [4], in [5] and in assay [6] was > 100 µM in each case. The TGI in assay [7], in assay [8], in assay [17], in [9], in assay [10] and in assay [11] was > 100 µM in each case. The TGI in [12], in assay [13] and in assay [15] was > 100 µM each time.
Take `CCn1c(=O)ccc2ccc(N(CCO)CCO)nc21`: the TGI in assay [1], in assay [2], in [3], in assay [4], in assay [5] and in assay [6] was > 100 µM each time. Besides, the TGI in assay [7], in assay [8], in assay [9], in assay [10], in [11] and in [12] was > 100 µM in each case. Besides, the TGI in assay [13], in [14] and in [15] was > 100 µM in each case.
For the compound `C=C(C)[C@@]1(O)CCC[C@H]1NC(=O)OC(C)(C)C`, the TGI in assay [1], in assay [2], in assay [3], in assay [4], in [5] and in assay [6] was > 100 µM each time. The TGI in [7], in assay [8], in assay [9], in assay [10], in assay [11] and in assay [12] was > 100 µM each time. Further, the TGI in assay [13], in assay [14] and in [15] was > 100 µM throughout.
